Measurements taken from US20230017045A1, “PYRIDINE AND PYRIMIDINE CARBOXYLATE HERBICIDES AND METHODS OF USE THEREOF” (Dow AgroSciences LLC, priority 2017, published 2023).
Like-named read-outs stand apart in the source and are kept apart here.

Tested on: test plant species
Experiment: Post-emergent herbicidal activity test (greenhouse, foliar spray, visual growth reduction)
Assay type: in vivo
Details: post-emergence, 336 h, 140 g ai/ha
Summary of the method: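 Visual scoring 14 d after treatment (0 = no injury, 100 = complete control) against nontreated and solvent-blank plants gave percent growth reduction. Foliar application used a track sprayer delivering 187 L/ha to seedlings at first or second true leaf stage, grown at 23–29 °C day, ~15 h photoperiod.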

[1] = ALOMY: blackgrass (Alopecurus myosuroides), 14 days after application, read-out: Visual Growth Reduction (%) 14 Days After Application, ALOMY
[2] = AMARE: redroot pigweed (Amaranthus retroflexus), 14 days after application, read-out: Visual Growth Reduction (%) 14 Days After Application, AMARE
[3] = AVEFA: wild oat (Avena fatua), 14 days after application, read-out: Visual Growth Reduction (%) 14 Days After Application, AVEFA
[4] = CHEAL: lambsquarters (Chenopodium album), 14 days after application, read-out: Visual Growth Reduction (%) 14 Days After Application, CHEAL
[5] = CIRAR: canada thistle (Cirsium arvense), 14 days after application, read-out: Visual Growth Reduction (%) 14 Days After Application, CIRAR
[6] = CYPES: yellow nutsedge (Cyperus esculentus), 14 days after application, read-out: Visual Growth Reduction (%) 14 Days After Application, CYPES
[7] = DIGSA: crabgrass (Digitaria sanguinalis), 14 days after application, read-out: Visual Growth Reduction (%) 14 Days After Application, DIGSA
[8] = ECHCG: barnyardgrass (Echinochloa crus-galli), 14 days after application, read-out: Visual Growth Reduction (%) 14 Days After Application, ECHCG
[9] = IPOHE: ivy-leaf morning glory (Ipomoea hederacea), 14 days after application, read-out: Visual Growth Reduction (%) 14 Days After Application, IPOHE
[10] = KCHSC: kochia (Bassia scoparia), 14 days after application, read-out: Visual Growth Reduction (%) 14 Days After Application, KCHSC
[11] = ORYSA: rice (Oryza sativa), 14 days after application, read-out: Visual Growth Reduction (%) 14 Days After Application, ORYSA
[12] = SETFA: giant foxtail (Setaria faberi), 14 days after application, read-out: Visual Growth Reduction (%) 14 Days After Application, SETFA
[13] = SORVU: grain sorghum (Sorghum vulgare), 14 days after application, read-out: Visual Growth Reduction (%) 14 Days After Application, SORVU
[14] = TRZAS: wheat, spring (Triticum aestivum), 14 days after application, read-out: Visual Growth Reduction (%) 14 Days After Application, TRZAS
[15] = STEME: common chickweed (Stellaria media), 14 days after application, read-out: Visual Growth Reduction (%) 14 Days After Application, STEME
[16] = blackgrass (Alopecurus myosuroides), 14 Days After Application, read-out: Visual Growth Reduction (%) ALOMY
[17] = crabgrass (Digitaria sanguinalis), 14 Days After Application, read-out: Visual Growth Reduction (%) DIGSA
[18] = lambsquarters (Chenopodium album), 14 Days After Application, read-out: Visual Growth Reduction (%) CHEAL
[19] = redroot pigweed (Amaranthus retroflexus), 14 Days After Application, read-out: Visual Growth Reduction (%) AMARE
[20] = wild oat (Avena fatua), 14 Days After Application, read-out: Visual Growth Reduction (%) AVEFA
[21] = yellow nutsedge (Cyperus esculentus), 14 Days After Application, read-out: Visual Growth Reduction (%) CYPES

Row | SMILES | pest or weed control at 140 g/ha [1] [%] | pest or weed control at 140 g/ha [2] [%] | pest or weed control at 140 g/ha [3] [%] | pest or weed control at 140 g/ha [4] [%] | pest or weed control at 140 g/ha [5] [%] | pest or weed control at 140 g/ha [6] [%] | pest or weed control at 140 g/ha [7] [%] | pest or weed control at 140 g/ha [8] [%] | pest or weed control at 140 g/ha [9] [%] | pest or weed control at 140 g/ha [10] [%] | pest or weed control at 140 g/ha [11] [%] | pest or weed control at 140 g/ha [12] [%] | pest or weed control at 140 g/ha [13] [%] | pest or weed control at 140 g/ha [14] [%] | pest or weed control at 140 g/ha [15] [%] | pest or weed control at 140 g/ha [16] [%] | pest or weed control at 140 g/ha [17] [%] | pest or weed control at 140 g/ha [18] [%] | pest or weed control at 140 g/ha [19] [%] | pest or weed control at 140 g/ha [20] [%] | also measured
1 | COC(=O)c1nc(-c2ccc(C(F)(F)F)c(F)c2F)ccc1Cl [F110, Methyl 3-chloro-6-(2,3-difluoro-4-(trifluoromethyl)phenyl)picolinate] | 0 to 29 | 85 to 94 | 0 to 29 | 75 to 84 | 85 to 94 | 0 to 29 | 0 to 29 | 0 to 29 | 95 to 100 | 0 to 29 | 0 to 29 | 0 to 29 | 60 to 74 | 0 to 29 |  |  |  |  |  |  | 
2 | COC(=O)c1nc(-c2ccc(C(F)(F)F)cc2Cl)ccc1Br [F32, Methyl 3-bromo-6-(2-chloro-4-(trifluoromethyl)yl)picolinate] | 0 to 29 | 60 to 74 | 0 to 29 | 60 to 74 | 75 to 84 | 0 to 29 | 60 to 74 | 0 to 29 | 95 to 100 | 45 to 59 | 0 to 29 | 30 to 44 | 85 to 94 | 0 to 29 | 0 to 29 |  |  |  |  |  | 
3 | COC(=O)c1nc(-c2ccc(C(F)(F)F)c(C)c2Cl)c(F)cc1Cl [F339, Methyl 3-chloro-6-(2-chloro-3-methyl-4-(trifluoromethyl)phenyl)-5-fluoropicolinate] |  |  |  |  |  |  |  | 0 to 29 | 95 to 100 | 85 to 94 | 0 to 29 | 0 to 29 | 60 to 74 | 0 to 29 | 0 to 29 | 0 to 29 | 0 to 29 | 95 to 100 | 95 to 100 | 0 to 29 | pest or weed control at 140 g/ha [21]: 60 to 74%
4 | O=C(OCc1cccnc1)c1nc(-c2ccc(C(F)(F)F)cc2Cl)ccc1Cl [F79, Pyridin-3-ylmethyl 3-chloro-6-(2-chloro-4-(trifluoromethyl)phenyl)picolinate] | 60 to 74 | 95 to 100 | 75 to 84 | 95 to 100 | 85 to 94 | 0 to 29 | 95 to 100 | 95 to 100 | 95 to 100 | 95 to 100 | 30 to 44 | 95 to 100 | 95 to 100 | 75 to 84 | 0 to 29 |  |  |  |  |  | 
5 | COC(=O)c1nc(-c2cc(F)c(C(F)(F)F)cc2F)c(F)cc1Cl [F324, Methyl 3-chloro-6-(2,5-difluoro-4-(trifluoromethyl)phenyl)-5-fluoropicolinate] |  |  |  |  |  |  |  | 0 to 29 | 95 to 100 | 85 to 94 | 0 to 29 | 60 to 74 | 75 to 84 | 45 to 59 | 0 to 29 | 30 to 44 | 95 to 100 | 85 to 94 | 95 to 100 | 30 to 44 | pest or weed control at 140 g/ha [21]: 60 to 74%
